Results: the supplement of paper PMC10307832

Tests used:
Experiment in all cases: relative viability (nuclei count vs DMSO), 5 days (fraction); higher = more cells survive
FG-4592 + Vorinostat = compound: Cc1nc(C(=O)NCC(=O)O)c(O)c2ccc(Oc3ccccc3)cc12 [FG-4592] + O=C(CCCCCCC(=O)Nc1ccccc1)NO [Vorinostat] (partner 1 µM)
Summary of the method: (§1)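 After 5 days of treatment, lung cancer cells in 1536-well plates were fixed and stained in a single step (final 0.05% Triton X-100, 1% formaldehyde, 1 ug/ml Hoechst) and their nuclei counted on 4× images. Treatment had been applied by pin tool the day after seeding as one drug alone or as a fixed anchor-drug dose with five library-drug doses (not always all listed) in √10 steps. Relative viability is the nuclei count of treated wells divided by that of vehicle wells, and values are medians of duplicate plates.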

FG-4592 + Bortezomib = compound: Cc1nc(C(=O)NCC(=O)O)c(O)c2ccc(Oc3ccccc3)cc12 [FG-4592] + CC(C)C[C@H](NC(=O)[C@H](Cc1ccccc1)NC(=O)c1cnccn1)B(O)O [Bortezomib] (partner 0.002 µM)
Summary of the method: as §1

IU1-47 + Crizotinib = compound: CC1=CC(=C(N1C2=CC=C(C=C2)Cl)C)C(=O)CN3CCCCC3 [IU1-47] + C[C@@H](Oc1cc(-c2cnn(C3CCNCC3)c2)cnc1N)c1c(Cl)ccc(F)c1Cl [Crizotinib] (partner 1 µM)
Summary of the method: as §1

IU1-47 + Palbociclib = compound: CC1=CC(=C(N1C2=CC=C(C=C2)Cl)C)C(=O)CN3CCCCC3 [IU1-47] + CC(=O)c1c(C)c2cnc(Nc3ccc(N4CCNCC4)cn3)nc2n(C2CCCC2)c1=O [Palbociclib] (partner 0.5 µM)
Summary of the method: as §1

Row | Cell Line | relative viability (FG-4592 + Vorinostat; first compound 0.08 µM) | relative viability (FG-4592 + Vorinostat; first compound 0.253 µM) | relative viability (FG-4592 + Vorinostat; first compound 0.8 µM) | relative viability (FG-4592 + Vorinostat; first compound 2.53 µM) | relative viability (FG-4592 + Vorinostat; first compound 8 µM) | relative viability (FG-4592 + Bortezomib; first compound 0.08 µM) | relative viability (FG-4592 + Bortezomib; first compound 0.253 µM) | relative viability (FG-4592 + Bortezomib; first compound 0.8 µM) | relative viability (FG-4592 + Bortezomib; first compound 2.53 µM) | relative viability (FG-4592 + Bortezomib; first compound 8 µM) | relative viability (IU1-47 + Crizotinib; first compound 0.08 µM) | relative viability (IU1-47 + Crizotinib; first compound 0.253 µM) | relative viability (IU1-47 + Crizotinib; first compound 0.8 µM) | relative viability (IU1-47 + Crizotinib; first compound 2.53 µM) | relative viability (IU1-47 + Crizotinib; first compound 8 µM) | relative viability (IU1-47 + Palbociclib; first compound 0.08 µM) | relative viability (IU1-47 + Palbociclib; first compound 0.253 µM) | relative viability (IU1-47 + Palbociclib; first compound 0.8 µM) | relative viability (IU1-47 + Palbociclib; first compound 2.53 µM) | relative viability (IU1-47 + Palbociclib; first compound 8 µM)
1 | NCI-H1651 | 0.597 | 0.596 | 0.546 | 0.469 | 0.538 | 0.834 | 0.826 | 1.02 | 0.893 | 0.856 | 0.887 | 0.873 | 0.889 | 0.804 | 0.863 | 0.525 | 0.539 | 0.495 | 0.523 | 0.523
2 | NCI-H1666 | 1.02 | 0.932 | 0.954 | 1.08 | 1.03 | 0.839 | 0.843 | 0.705 | 0.701 | 0.537 | 0.948 | 0.914 | 0.927 | 0.991 | 1.08 | 0.695 | 0.652 | 0.695 | 0.682 | 0.63
3 | NCI-H1734 | 0.762 | 0.802 | 0.616 | 0.713 | 0.852 | 0.743 | 0.956 | 0.861 | 0.838 | 0.951 | 0.658 | 0.688 | 0.646 | – | 0.647 | 0.353 | 0.355 | 0.314 | 0.367 | 0.322
4 | NCI-H1755 | 0.694 | 0.761 | 0.472 | 0.69 | 0.747 | 0.918 | 1.01 | 0.907 | 1.02 | 0.998 | 0.883 | 0.927 | 0.899 | 0.895 | 0.756 | 0.44 | 0.518 | 0.461 | 0.46 | 0.436
5 | NCI-H1915 | 0.452 | 0.489 | 0.469 | 0.442 | 0.468 | 0.933 | 0.922 | 0.95 | 0.884 | 1.01 | 0.973 | 0.892 | 0.915 | – | 0.907 | 0.561 | 0.513 | 0.539 | 0.565 | 0.528
6 | NCI-H1975 | 0.723 | 0.644 | 0.748 | 0.767 | 0.653 | 0.369 | 0.318 | 0.34 | 0.4 | 0.307 | 1.04 | 1.01 | 1 | 1.01 | 0.845 | 0.586 | 0.547 | 0.868 | 0.611 | 0.364
7 | NCI-H1993 | 1.06 | 0.69 | – | 0.642 | 0.814 | 1.12 | 0.828 | 1.06 | 1.25 | 0.894 | 0.928 | 0.84 | 0.965 | 0.85 | 0.864 | 0.854 | 0.698 | 0.659 | 0.558 | 0.513
8 | NCI-H2009 | 0.823 | 0.694 | 0.88 | 0.671 | 0.727 | 1.02 | 0.934 | 0.948 | 0.826 | 0.882 | 1 | 1.1 | 0.933 | 1.1 | 1.05 | 0.225 | 0.229 | 0.208 | 0.21 | 0.231
9 | NCI-H2023 | 0.631 | 0.514 | 0.572 | 0.553 | 0.543 | 1.07 | 0.924 | 0.664 | 0.763 | 0.679 | 0.663 | 0.67 | 0.645 | 0.78 | 0.581 | 0.464 | 0.45 | 0.421 | 0.47 | 0.344
10 | NCI-H2085 | 0.693 | 0.755 | 0.65 | 0.769 | 0.771 | 0.998 | 1.02 | 1.01 | 0.963 | 1.06 | 0.911 | 0.847 | 0.851 | 0.869 | 0.739 | 0.444 | 0.458 | 0.488 | 0.463 | 0.496
11 | NCI-H2087 | 0.695 | 0.453 | 0.565 | – | 0.869 | 0.775 | 0.864 | 0.983 | 0.832 | 0.789 | 1.01 | 0.83 | 0.947 | 1.04 | 0.806 | 0.204 | 0.302 | 0.239 | 0.174 | 0.25
12 | NCI-H2126 | 0.709 | 0.726 | 0.594 | 0.509 | 0.73 | 1.09 | 1.1 | 1.12 | 1.12 | 1.13 | 1.08 | 1.08 | 1.03 | 0.813 | 0.972 | 0.392 | 0.352 | 0.359 | 0.364 | 0.395
13 | NCI-H2228 | 0.592 | 0.408 | 0.77 | 0.583 | 0.449 | 0.928 | 0.872 | 0.786 | 1.1 | 0.737 | 0.524 | 0.455 | 0.449 | 0.555 | 0.448 | 0.715 | 0.807 | 0.897 | 0.689 | 0.575
14 | NCI-H2347 | 0.519 | 0.421 | 0.52 | 0.41 | 0.585 | – | 0.623 | 0.806 | 0.782 | 1.14 | 0.575 | 0.746 | 0.727 | 0.674 | 0.762 | 0.39 | 0.474 | 0.436 | 0.43 | 0.438
15 | NCI-H2405 | 0.767 | 0.906 | 0.92 | 0.942 | 0.961 | 0.906 | 0.894 | 0.998 | 0.922 | 0.952 | 0.901 | 0.837 | 0.778 | 0.878 | 0.836 | 0.539 | 0.593 | 0.531 | 0.539 | 0.506
16 | NCI-H3122 | 0.997 | 0.906 | 0.975 | 0.975 | 0.592 | 1.03 | 1.02 | 1.13 | 1.07 | 1.07 | 0.277 | 0.27 | 0.295 | 0.269 | 0.241 | 0.186 | 0.189 | 0.18 | 0.275 | 0.212
17 | PC-3 [JPC-3] | 0.705 | 0.797 | – | 0.853 | 0.823 | 0.824 | 0.745 | 0.872 | 0.884 | 0.832 | 1.08 | 0.975 | 1.08 | – | 0.962 | 0.562 | 0.531 | 0.602 | 0.546 | 0.559
